This passage reports relative viability results from the supplement of paper PMC10307832.

Compound in test [1]: COc1cc([C@@H]2c3cc4c(cc3[C@@H](O[C@@H]3O[C@@H]5CO[C@@H](C)O[C@H]5[C@H](O)[C@H]3O)[C@H]3COC(=O)[C@H]23)OCO4)cc(OC)c1O [Etoposide] + COc1cc2c(Oc3ccc(NC(=O)C4(C(=O)Nc5ccc(F)cc5)CC4)cc3F)ccnc2cc1OCCCN1CCOCC1 [Foretinib] (partner 0.25 µM)
As to the kind of experiment: relative viability (nuclei count vs DMSO), 5 days (fraction); higher = more cells survive. The method in brief: (§1)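 After 5 days of treatment, lung cancer cells in 1536-well plates were fixed and stained in a single step (final 0.05% Triton X-100, 1% formaldehyde, 1 ug/ml Hoechst) and their nuclei counted on 4× images. Treatment had been applied by pin tool the day after seeding as one drug alone or as a fixed anchor-drug dose with five library-drug doses (not always all listed) in √10 steps. Relative viability is the nuclei count of treated wells divided by that of vehicle wells, and values are medians of duplicate plates.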

Compound in test [2]: CC1=C(N=C(N=C1N)[C@H](CC(=O)N)NC[C@@H](C(=O)N)N)C(=O)N[C@@H]([C@H](C2=CN=CN2)OC3C(C(C(C(O3)CO)O)O)OC4C(C(C(C(O4)CO)O)OC(=O)N)O)C(=O)N[C@H](C)[C@H]([C@H](C)C(=O)N[C@@H]([C@@H](C)O)C(=O)NCCC5=NC(=CS5)C6=NC(=CS6)C(=O)NCCC[S+](C)C)O [Bleomycin] + CC1(C)CCC(c2ccc(Cl)cc2)=C(CN2CCN(c3ccc(C(=O)NS(=O)(=O)c4ccc(N[C@H](CCN5CCOCC5)CSc5ccccc5)c(S(=O)(=O)C(F)(F)F)c4)cc3)CC2)C1 [Navitoclax] (partner 0.5 µM)
The test is described as above. Particulars: main component drawn. The method in brief: as §1

With NCI-H1437, the relative viability turned out to be 1.21 in test [1] (first compound 0.01 µM); 1.2 in test [1] (first compound 0.03162 µM); 1.27 in test [1] (first compound 0.1 µM); 0.943 in test [1] (first compound 0.3162 µM); 0.44 in test [1] (first compound 1 µM); 0.952 in test [2] (first compound 0.01 µM). The relative viability in test [2] (first compound 0.03162 µM) turned out to be 1.07; in test [2] (first compound 0.1 µM), 0.978; in test [2] (first compound 0.3162 µM) it was 0.667; in test [2] (first compound 1 µM), 0.491.
In the case of NCI-H520, the relative viability in test [1] (first compound 0.01 µM) is 0.825; in test [1] (first compound 0.03162 µM) it was 0.93; in test [1] (first compound 0.1 µM), 0.784; in test [1] (first compound 0.3162 µM), 0.67; in test [1] (first compound 1 µM) it was 0.554; in test [2] (first compound 0.01 µM) it was 0.858. For the same cell line, the relative viability is 0.957 in test [2] (first compound 0.03162 µM), 1.1 in test [2] (first compound 0.1 µM), 0.927 in test [2] (first compound 0.3162 µM) and 0.656 in test [2] (first compound 1 µM).
As to NCI-H1666, the relative viability stood at 0.962 in test [1] (first compound 0.01 µM); 0.919 in test [1] (first compound 0.03162 µM); 0.695 in test [1] (first compound 0.1 µM); 0.42 in test [1] (first compound 0.3162 µM); 0.461 in test [1] (first compound 1 µM); 0.761 in test [2] (first compound 0.01 µM). Besides, the relative viability in test [2] (first compound 0.03162 µM) was 0.579; in test [2] (first compound 0.1 µM) it was 0.518; in test [2] (first compound 0.3162 µM), 0.362; in test [2] (first compound 1 µM), 0.324.
As to NCI-H1651, the relative viability in test [1] (first compound 0.01 µM) worked out at 0.781; in test [1] (first compound 0.03162 µM), 0.659; in test [1] (first compound 0.1 µM), 0.784; in test [1] (first compound 0.3162 µM), 0.351; in test [1] (first compound 1 µM), 0.251; in test [2] (first compound 0.01 µM), 0.944. Also, the relative viability is 0.82 in test [2] (first compound 0.03162 µM), 0.614 in test [2] (first compound 0.1 µM), 0.272 in test [2] (first compound 0.3162 µM) and 0.136 in test [2] (first compound 1 µM).
Take NCI-H1755: the relative viability in test [1] (first compound 0.01 µM) was 0.958; in test [1] (first compound 0.03162 µM), 0.974; in test [1] (first compound 0.1 µM) it was 0.919; in test [1] (first compound 0.3162 µM), 0.883; in test [1] (first compound 1 µM), 0.869; in test [2] (first compound 0.01 µM), 0.932. The relative viability in test [2] (first compound 0.03162 µM) was 0.933; in test [2] (first compound 0.1 µM), 0.945; in test [2] (first compound 0.3162 µM), 0.724; in test [2] (first compound 1 µM), 0.394.
Turning to NCI-H727, the relative viability was found to be 0.988 in test [1] (first compound 0.01 µM); 0.912 in test [1] (first compound 0.03162 µM); 0.732 in test [1] (first compound 0.3162 µM); 0.606 in test [1] (first compound 1 µM); 0.388 in test [2] (first compound 0.01 µM); 0.339 in test [2] (first compound 0.03162 µM). Moreover, the values for the relative viability in test [2] (first compound 0.1 µM), in test [2] (first compound 0.3162 µM) and in test [2] (first compound 1 µM) were 0.351, 0.181 and 0.286, respectively.
On to HARA, for which the relative viability was found to be 0.703 in test [1] (first compound 0.01 µM); 0.9 in test [1] (first compound 0.03162 µM); 0.291 in test [1] (first compound 0.1 µM); 0.534 in test [1] (first compound 0.3162 µM); 0.187 in test [1] (first compound 1 µM); 1.1 in test [2] (first compound 0.01 µM). Further, the relative viability in test [2] (first compound 0.03162 µM) amounted to 1.08; in test [2] (first compound 0.1 µM), 1.02; in test [2] (first compound 0.3162 µM) it was 0.747; in test [2] (first compound 1 µM) it was 0.601.
For the cell line NCI-H647, the relative viability in test [1] (first compound 0.01 µM) came out at 1.02; in test [1] (first compound 0.03162 µM), 1.25; in test [1] (first compound 0.1 µM), 1.21; in test [1] (first compound 0.3162 µM), 0.654; in test [1] (first compound 1 µM), 0.271; in test [2] (first compound 0.01 µM), 0.408. Moreover, the relative viability in test [2] (first compound 0.03162 µM) is 0.263; in test [2] (first compound 0.1 µM), 0.203; in test [2] (first compound 0.3162 µM) it was 0.0968; in test [2] (first compound 1 µM), 0.0761.
Take NCI-H2347: the relative viability in test [1] (first compound 0.01 µM) stood at 0.844; in test [1] (first compound 0.03162 µM), 0.981; in test [1] (first compound 0.1 µM) it was 0.515; in test [1] (first compound 0.3162 µM), 0.59; in test [1] (first compound 1 µM) it was 0.387; in test [2] (first compound 0.01 µM), 0.75. Also, the relative viability in test [2] (first compound 0.03162 µM) amounted to 0.883; in test [2] (first compound 0.1 µM), 0.663; in test [2] (first compound 0.3162 µM) it was 0.259; in test [2] (first compound 1 µM), 0.402.
Regarding A549, the relative viability in test [1] (first compound 0.01 µM) turned out to be 0.773; in test [1] (first compound 0.03162 µM) it was 1.01; in test [1] (first compound 0.1 µM), 0.753; in test [1] (first compound 0.3162 µM) it was 0.236; in test [1] (first compound 1 µM) it was 0.068; in test [2] (first compound 0.01 µM), 0.933. For the same cell line, the relative viability in test [2] (first compound 0.03162 µM) was determined as 0.827; in test [2] (first compound 0.1 µM) it was 0.54; in test [2] (first compound 0.3162 µM), 0.127; in test [2] (first compound 1 µM), 0.0446.
